# Results from ChEMBL document CHEMBL5260828, “Amphiphilic glycoconjugates as potential anti-cancer chemotherapeutics” (Eur J Med Chem, 2018).
# Assays:
# A549 [1] = assay: Cytotoxicity against human A549 cells assessed as cell growth inhibition incubated for 48 hrs by MTT assay; type: functional, cell-based; details: A549, 48 h
# NUGC-3 [2] = assay: Cytotoxicity against human NUGC-3 cells assessed as cell growth inhibition by measuring lethal dose incubated for 30 mins by MTT assay; type: functional; details: NUGC-3, 0.5 h, read-out: LD50 (the source's name)
# IGROV-1 [3] = assay: Antiproliferative activity against human IGROV-1 cells assessed as inhibition of cell growth incubated for 72 hrs in serum-free medium by Coulter counter assay; type: functional, cell-based; details: IGROV-1, 72 h
# [4] = target: RAC-alpha serine/threonine-protein kinase (Homo sapiens, UniProt P31749); assay: Inhibition of AKT1 (unknown origin) in presence of ATP by ELISA
# IGROV-1 [5] = assay: Antiproliferative activity against human IGROV-1 cells assessed as inhibition of cell growth incubated for 72 hrs by Coulter counter assay; type: functional, cell-based; details: IGROV-1, 72 h
# Ca9-22 = assay: Cytotoxicity against human Ca9-22 cells assessed as cell growth inhibition by MTT colorimetric assay; type: functional, cell-based
# HepG2 = assay: Cytotoxicity against human HepG2 cells assessed as cell growth inhibition by MTT colorimetric assay; type: functional, cell-based
# Hep 3B2 = assay: Cytotoxicity against human Hep3B cells assessed as cell growth inhibition by MTT colorimetric assay; type: functional, cell-based
# MDA-MB-231 [6] = assay: Cytotoxicity against human MDA-MB-231 cells assessed as cell growth inhibition by MTT colorimetric assay; type: functional, cell-based
# Jurkat = assay: Inhibition of cell growth in human Jurkat cells at 25 ug/ml; type: functional
# Col2 = assay: Cytotoxicity against human Col2 cells assessed as cell growth inhibition incubated for 24 hrs by MTT assay; type: functional, cell-based; details: Col2, 24 h
# KB = assay: Cytotoxicity against human KB cells assessed as cell growth inhibition incubated for 24 hrs by MTT assay; type: functional, cell-based
# A549 [7] = assay: Cytotoxicity against human A549 cells assessed as cell growth inhibition incubated for 24 hrs by MTT assay; type: functional, cell-based; details: A549, 24 h
# MDA-MB-231 [8] = assay: Cytotoxicity against human MDA-MB-231 cells assessed as cell growth inhibition incubated for 24 hrs by MTT assay; type: functional, cell-based; details: MDA-MB-231, 24 h
# K562 = assay: Cytotoxicity against human K562 cells assessed as cell growth inhibition incubated for 24 hrs by MTT assay; type: functional, cell-based; details: K562, 24 h
# MCF7 = assay: Antiproliferative activity against human MCF7 cells assessed as inhibition of cell growth incubated for 48 hrs by MTT assay; type: functional, cell-based
# AGS = assay: Antiproliferative activity against human AGS cells assessed as inhibition of cell growth incubated for 48 hrs by MTT assay; type: functional, cell-based
# HCT-116 [9] = assay: Antiproliferative activity against human HCT-116 cells assessed as inhibition of cell growth incubated for 48 hrs by MTT assay; type: functional, cell-based
# SF-268 = assay: Antiproliferative activity against human SF-268 cells assessed as inhibition of cell growth incubated for 48 hrs by MTT assay; type: functional, cell-based
# NCI-H460 = assay: Antiproliferative activity against human NCI-H460 cells assessed as inhibition of cell growth incubated for 48 hrs by MTT assay; type: functional, cell-based
# Lung NSCLC-N6 cell-line = assay: Cytotoxicity against human Lung NSCLC-N6 cell-line by MTT colorimetric assay; type: functional, cell-based
# NUGC-3 [10] = assay: Cytotoxicity against human NUGC-3 cells assessed as cell growth inhibition incubated for 30 mins by MTT assay; type: functional, cell-based; details: NUGC-3, 0.5 h
# HeLa [11] = assay: Antiproliferative activity against human HeLa cells assessed as inhibition of cell growth incubated for 24 hrs by MTT assay; type: functional, cell-based
# SMMC-7721 = assay: Cytotoxicity against human SMMC-7721 cells assessed as cell growth inhibition incubated for 48 hrs by MTT assay; type: functional, cell-based; details: SMMC-7721, 48 h
# B16 = assay: Cytotoxicity against mouse B16 cells assessed as cell growth inhibition incubated for 48 hrs by MTT assay; type: functional, cell-based; details: B16, 48 h
# HeLa [12] = assay: Cytotoxicity against human HeLa cells assessed as cell growth inhibition incubated for 48 hrs by MTT assay; type: functional, cell-based
# HeLa S3 = assay: Cytotoxicity against human HeLa S3 cells assessed as inhibition of cell proliferation incubated for 72 hrs by MTT assay; type: functional, cell-based; details: HeLa S3, 72 h
# HL-60 = assay: Cytotoxicity against human HL-60 cells assessed as inhibition of cell proliferation incubated for 72 hrs by MTT assay; type: functional, cell-based; details: HL-60, 72 h
# HCT-116 [13] = assay: Cytotoxicity against human HCT-116 cells assessed as cell growth inhibition incubated for 72 hrs by celltiter 96 aqueous cell proliferation assay; type: functional, cell-based; details: HCT-116, 72 h
# RAC-alpha serine/threonine-protein kinase, sequence (P31749 whole entry): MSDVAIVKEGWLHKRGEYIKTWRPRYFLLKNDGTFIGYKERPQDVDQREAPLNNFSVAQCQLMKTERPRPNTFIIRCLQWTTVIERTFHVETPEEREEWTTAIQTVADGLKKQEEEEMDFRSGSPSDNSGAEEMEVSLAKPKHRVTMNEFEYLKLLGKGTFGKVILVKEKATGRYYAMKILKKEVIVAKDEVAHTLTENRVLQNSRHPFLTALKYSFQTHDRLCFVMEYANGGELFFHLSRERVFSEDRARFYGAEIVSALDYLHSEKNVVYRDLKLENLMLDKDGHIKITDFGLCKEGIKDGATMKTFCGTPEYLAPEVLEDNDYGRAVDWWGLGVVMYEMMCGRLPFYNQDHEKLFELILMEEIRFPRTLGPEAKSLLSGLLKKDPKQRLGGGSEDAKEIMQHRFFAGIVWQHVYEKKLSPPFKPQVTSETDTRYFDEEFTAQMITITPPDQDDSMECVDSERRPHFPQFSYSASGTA
structure (smiles),measurement,setting,value
CCCCCCCCCCCCCCCC(=O)OCC(CO[C@H]1O[C@H](CS(=O)(=O)[O-])[C@@H](O)[C@H](O)[C@H]1O)OC(=O)CCCCCCCCCCCCCCC.[Na+] (stereo partly specified),IC50,A549 [1],83.5 µg/mL
CCCCCCCCCCCCCCCCCC(=O)OCC(CO[C@H]1O[C@H](CS(=O)(=O)[O-])[C@@H](O)[C@H](O)[C@H]1O)OC(=O)CCCCCCCCCCCCCCCCC.[Na+] (stereo partly specified),IC50,A549 [1],75.5 µg/mL
CCCCCCCCCCCCCCCCCC(=O)OCC(O)CO[C@@H]1O[C@H](CS(=O)(=O)O)[C@@H](O)[C@H](O)[C@H]1O (stereo partly specified),CC50,NUGC-3 [2],135000 nM
CCCCCCCCCCCCCCCCCC(=O)OCC(O)CO[C@H]1O[C@H](CS(=O)(=O)O)[C@@H](O)[C@H](O)[C@H]1O (stereo partly specified),CC50,NUGC-3 [2],150000 nM
CCCCCCCCCCCCCCCCCOC(=O)O[C@H](COC(=O)CCCCCCCCCCCCCCCCC)COP(=O)(O)O[C@@H]1[C@H](O)[C@H](OP(=O)(O)O)[C@@H](O)[C@H](O)[C@H]1O,IC50,IGROV-1 [3],3350 nM
same,IC50,[4],19700 nM
same,IC50,IGROV-1 [5],49000 nM
CCCCCCCCCCCCOC[C@@H](COO)O[C@@H]1OC[C@@H](O)[C@@H](O)[C@@H]1O,IC50,Ca9-22,9.2 µg/mL
same,IC50,HepG2,9.2 µg/mL
same,IC50,Hep 3B2,9.2 µg/mL
same,IC50,MDA-MB-231 [6],9.2 µg/mL
CCCCCCCCCCCCCCCCCC(=O)OC[C@H](COC1O[C@H](CS(=O)(=O)[O-])[C@@H](O)[C@H](O)[C@H]1O)OCC(=O)CCCCCCCCCCCCCCC.[Na+] (stereo partly specified),CC50,NUGC-3 [2],80 µg/mL
CCCCOC(=O)CCCCCCC/C=C/CCCCCC[C@H](C)O[C@@H]1O[C@H](COC(C)=O)[C@@H](O)[C@H](O)[C@H]1O[C@@H]1O[C@H](COC(C)=O)[C@@H](O)[C@H](O)[C@H]1O,inhibition at 25 µg/mL,Jurkat,99.7%
CCCCCCCCCCCCCCOC[C@@H](COO)O[C@@H]1OC[C@@H](O)[C@@H](O)[C@@H]1O,IC50,Ca9-22,9.2 µg/mL
same,IC50,HepG2,9.2 µg/mL
same,IC50,Hep 3B2,9.2 µg/mL
same,IC50,MDA-MB-231 [6],9.2 µg/mL
CCCCCCCCO[C@@H]1O[C@@H](C)[C@H](OC(=O)CCCCC)[C@@H](O[C@@H]2O[C@@H](C)[C@H](OC(C)=O)[C@@H](O[C@@H]3O[C@@H](C)[C@H](OC(C)=O)[C@@H](O[C@@H]4O[C@@H](C)[C@H](O)[C@@H](O)[C@H]4O)[C@H]3OC(C)=O)[C@H]2OC(C)=O)[C@H]1O,IC50,Col2,700 nM
same,IC50,KB,700 nM
same,IC50,A549 [7],700 nM
same,IC50,MDA-MB-231 [8],700 nM
same,IC50,K562,700 nM
CC/C=C\C/C=C\C/C=C\CCCCCCCC(=O)OCC(CO[C@@H]1O[C@H](CO)[C@H](O)[C@H](O)[C@H]1O)OC(=O)CCCCCCCCCCCCCCCCC (stereo partly specified),IC50,MCF7,0.039 µg/mL
same,IC50,AGS,0.039 µg/mL
same,IC50,HCT-116 [9],0.039 µg/mL
same,IC50,SF-268,0.039 µg/mL
same,IC50,NCI-H460,0.039 µg/mL
CO[C@@H]1/C=C(\C)C[C@H](/C=C/C#C[C@H]2C[C@@H]2Cl)OC(=O)[C@@H](C)[C@]2(O)C[C@H](O[C@@H]3O[C@@H](C)[C@H](O[C@@H]4O[C@@H](C)[C@H](O)[C@@](C)(O)[C@H]4OC)[C@@](C)(O)[C@H]3OC)[C@@H](C)[C@@H](O2)[C@@H]1C,IC50,Lung NSCLC-N6 cell-line,15.1 µg/mL
CCCCCCCCCCCCCCCCCC(=O)OCC(O)CO[C@H]1O[C@H](CO)[C@@H](O)[C@H](O)[C@H]1O (stereo partly specified),IC50,NUGC-3 [10],110000 nM
CCCCCCCCCCCCOC[C@@H](COC(C)=O)O[C@@H]1OC[C@@H](O)[C@@H](O)[C@@H]1O,IC50,Ca9-22,9.2 µg/mL
same,IC50,HepG2,9.2 µg/mL
same,IC50,Hep 3B2,9.2 µg/mL
same,IC50,MDA-MB-231 [6],9.2 µg/mL
CCCCCCCCCCCCCCCCCCCCCCCCCCCC(=O)OC[C@H](CC[C@@H]1O[C@H](CO)[C@@H](O)[C@H](O)[C@H]1O)OC(=O)CCCCCCCCCCCCCCCCCCCCCCCCCCC,IC50,HeLa [11],> 100 µg/mL
CCOC(=O)CCCCCCC/C=C/CCCCCC[C@H](C)O[C@@H]1O[C@H](COC(C)=O)[C@@H](O)[C@H](O)[C@H]1O[C@@H]1O[C@H](COC(C)=O)[C@@H](O)[C@H](O)[C@H]1O,inhibition at 25 µg/mL,Jurkat,90%
CC/C=C\C/C=C\C/C=C\CCCCCCCC(=O)OCC(CO[C@@H]1O[C@H](CO)[C@H](O)[C@H](O)[C@H]1O)OC(=O)CCCCCCCCCCCCCCC (stereo partly specified),IC50,MCF7,0.039 µg/mL
same,IC50,AGS,0.039 µg/mL
same,IC50,HCT-116 [9],0.039 µg/mL
same,IC50,SF-268,0.039 µg/mL
same,IC50,NCI-H460,0.039 µg/mL
CCCCCCCCCC(=O)OCC(COC(=O)CCCCCCCCC)O[C@@H]1O[C@H](C(=O)O)[C@@H](O)[C@H](O)[C@H]1O,IC50,IGROV-1 [3],9400 nM
same,IC50,[4],30800 nM
same,IC50,IGROV-1 [5],156000 nM
CC/C=C\C/C=C\C/C=C\CCCCCCCC(=O)OCC(CO[C@@H]1O[C@H](CO)[C@H](O)[C@H](O)[C@H]1O)OC(=O)CCCCCCC/C=C\C/C=C\C/C=C\CC (stereo partly specified),IC50,MCF7,0.039 µg/mL
same,IC50,AGS,0.039 µg/mL
same,IC50,HCT-116 [9],0.039 µg/mL
same,IC50,SF-268,0.039 µg/mL
same,IC50,NCI-H460,0.039 µg/mL
CC/C=C\C/C=C\C/C=C\CCCCCCCC(=O)OCC(CO[C@H]1O[C@H](CN)[C@@H](O)[C@H](O)[C@H]1O)OC(=O)CCCCCCC/C=C\C/C=C\C/C=C\CC (stereo partly specified),IC50,SMMC-7721,70.3 µg/mL
same,IC50,B16,70.3 µg/mL
same,IC50,HeLa [12],70.3 µg/mL
CC/C=C\C/C=C\C/C=C\CCCCCCCC(=O)OCC(CO[C@H]1O[C@H](CNC(=O)CCc2ccc(O)cc2)[C@@H](O)[C@H](O)[C@H]1O)OC(=O)CCCCCCC/C=C\C/C=C\C/C=C\CC (stereo partly specified),IC50,SMMC-7721,70.3 µg/mL
same,IC50,B16,70.3 µg/mL
same,IC50,HeLa [12],70.3 µg/mL
C/C=C/C/C(C)=C\[C@H]1C/C=C/C=C/C[C@H](C)/C=C(\C)[C@@H](OC)C[C@@H](O)C[C@@H](O)CC(=O)O1,IC50,HeLa S3,39 nM
same,IC50,HL-60,12 nM
CO[C@@H]1/C=C(\C)C[C@H](/C=C/C#C[C@H]2C[C@@H]2Cl)OC(=O)[C@@H](C)[C@]2(O)C[C@H](O[C@@H]3O[C@@H](C)[C@H](O[C@@H]4O[C@@H](C)[C@H](O)[C@@](C)(O)[C@H]4O)[C@@](C)(O)[C@H]3OC)[C@@H](C)[C@@H](O2)[C@@H]1C,IC50,HCT-116 [13],2000 nM
same,IC50,Lung NSCLC-N6 cell-line,30 µg/mL
CCCCCCCCCCCCCC(=O)OCC(O)C[C@@H]1O[C@H](COC(C)=O)[C@H](OC(C)=O)[C@H](OC(C)=O)[C@H]1OC(C)=O (stereo partly specified),IC50,HeLa [11],57 µg/mL
CCCCCCCCCCCCCCCCCCCCCCCCCCCC(=O)OC[C@H](CC[C@@H]1O[C@H](CO)[C@H](O)[C@H](O)[C@H]1O)OC(=O)CCCCCCCCCCCCCCCCCCCCCCCCCCC,IC50,HeLa [11],> 100 µg/mL
CCCCCCCCO[C@@H]1O[C@@H](C)[C@H](OC(=O)CCCCC)[C@@H](O[C@@H]2O[C@@H](C)[C@H](OC(C)=O)[C@@H](O[C@@H]3O[C@@H](C)[C@H](OC(C)=O)[C@@H](O[C@@H]4O[C@@H](C)[C@H](O)[C@@H](O)[C@H]4OC(C)=O)[C@H]3OC(C)=O)[C@H]2OC(C)=O)[C@H]1O,IC50,Col2,700 nM
same,IC50,KB,700 nM
same,IC50,A549 [7],700 nM
same,IC50,MDA-MB-231 [8],700 nM
same,IC50,K562,700 nM
CCCCCCCCCCCCCCCCCC(=O)OCC(O)CO (stereo unspecified) [GLYCERYL MONOSTEARATE],IC50,NUGC-3 [10],100000 nM
